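These data come from cells grown in 96-well plates and exposed to compound for 48 hours at five concentrations. GI50 is the concentration that inhibits growth by half.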 The source made the active and inactive calls. Cut-off read from the data, not from the text of the source: active = GI50 up to about 1.1 µM and inactive = higher.
Tests used:
Assay in all cases: NCI tumour cell line growth inhibition, 48 h
OVCAR-5 = test system: OVCAR-5
NCI/ADR-RES = test system: NCI/ADR-RES
OVCAR-4 = test system: OVCAR-4
MDA-N = test system: MDA-N
UACC-257 = test system: UACC-257
NCI-H522 = test system: NCI-H522
Hs-578T = test system: Hs-578T
SR = test system: SR
A549 = test system: A549
COLO 205 = test system: COLO 205
SF-295 = test system: SF-295
NCI-H226 = test system: NCI-H226
BT-549 = test system: BT-549
NCI-H23 = test system: NCI-H23
Malme-3M = test system: Malme-3M
NCI-H460 = test system: NCI-H460
SF-539 = test system: SF-539
A498 = test system: A498
T47D = test system: T47D
KM12 = test system: KM12

| SMILES | GI50 (OVCAR-5) | GI50 (NCI/ADR-RES) | GI50 (OVCAR-4) | GI50 (MDA-N) | GI50 (UACC-257) | GI50 (NCI-H522) | GI50 (Hs-578T) | GI50 (SR) | GI50 (A549) | GI50 (COLO 205) | GI50 (SF-295) | GI50 (NCI-H226) | GI50 (BT-549) | GI50 (NCI-H23) | GI50 (Malme-3M) | GI50 (NCI-H460) | GI50 (SF-539) | GI50 (A498) | GI50 (T47D) | GI50 (KM12) |
| --- | --- | --- | --- | --- | --- | --- | --- | --- | --- | --- | --- | --- | --- | --- | --- | --- | --- | --- | --- | --- |
| O=C(O)c1ccccc1-c1ccccc1C(=O)Nc1ccc2c(c1)Cc1cc(F)ccc1-2 | 30.8 µM (inactive) | 36.5 µM (inactive) | 25.9 µM (inactive) | 23.6 µM (inactive) | 22.1 µM (inactive) | 24.3 µM (inactive) | 54.8 µM (inactive) | 18 µM (inactive) | 24.5 µM (inactive) | 17.4 µM (inactive) | 26.4 µM (inactive) | 30.5 µM (inactive) | 18.9 µM (inactive) | 17.9 µM (inactive) | 33.7 µM (inactive) | 26.6 µM (inactive) | 29.5 µM (inactive) | 19 µM (inactive) | 22.1 µM (inactive) | 24.5 µM (inactive) |
| CC1(C)Oc2ccccc2OC1O (stereo not given) | > 100 µM (inactive) | > 100 µM (inactive) | > 100 µM (inactive) | > 100 µM (inactive) | > 100 µM (inactive) | > 100 µM (inactive) | > 100 µM (inactive) | > 100 µM (inactive) | > 100 µM (inactive) | > 100 µM (inactive) | > 100 µM (inactive) | > 100 µM (inactive) | > 100 µM (inactive) | > 100 µM (inactive) | > 100 µM (inactive) | > 100 µM (inactive) | > 100 µM (inactive) | > 100 µM (inactive) | > 100 µM (inactive) | > 100 µM (inactive) |
| Cc1ccc(S(=O)(=O)NN=C2CCCCCCCCCCC2)cc1 | > 100 µM (inactive) | > 100 µM (inactive) | > 100 µM (inactive) | > 100 µM (inactive) | > 100 µM (inactive) | > 100 µM (inactive) | 35.7 µM (inactive) | > 100 µM (inactive) | > 100 µM (inactive) | > 100 µM (inactive) | > 100 µM (inactive) | 38.4 µM (inactive) | > 100 µM (inactive) | > 100 µM (inactive) | > 100 µM (inactive) | > 100 µM (inactive) | > 100 µM (inactive) | > 100 µM (inactive) | > 100 µM (inactive) | > 100 µM (inactive) |
| CC(Br)C(=O)NC(CO)C(=O)O (stereo not given) | > 100 µM (inactive) | > 100 µM (inactive) | > 100 µM (inactive) | > 100 µM (inactive) | > 100 µM (inactive) | > 100 µM (inactive) | > 100 µM (inactive) | > 100 µM (inactive) | > 100 µM (inactive) | > 100 µM (inactive) | > 100 µM (inactive) | > 100 µM (inactive) | > 100 µM (inactive) | > 100 µM (inactive) | > 100 µM (inactive) | > 100 µM (inactive) | > 100 µM (inactive) | > 100 µM (inactive) | > 100 µM (inactive) | > 100 µM (inactive) |
| O=C(NO)c1cccc(OCc2ccc(Br)cc2)c1 | 12.6 µM (inactive) | 2.93 µM (inactive) | 5.24 µM (inactive) | 9.02 µM (inactive) | 10.5 µM (inactive) | 1.41 µM (inactive) | 13.1 µM (inactive) | 2.29 µM (inactive) | 5.28 µM (inactive) | 8.11 µM (inactive) | 4.79 µM (inactive) | 3.78 µM (inactive) | 7.71 µM (inactive) | 3.79 µM (inactive) | 2.37 µM (inactive) | 3.06 µM (inactive) | 4.72 µM (inactive) | 8.93 µM (inactive) | 3.06 µM (inactive) | 5.4 µM (inactive) |
| COC1=C(Br)[C@H](O)[C@@]2(C=C1Br)CC(C(=O)NCCCOc1c(Br)cc(C(O)CNC(C)=O)cc1Br)=NO2 (stereo not given in full) [APLYSINAMISINE III] | > 10 µM (inactive) | > 10 µM (inactive) | > 10 µM (inactive) | 2.11 µM (inactive) | > 10 µM (inactive) | 4.17 µM (inactive) | > 10 µM (inactive) | 0.00518 µM (active) | > 10 µM (inactive) | > 10 µM (inactive) | > 10 µM (inactive) | > 10 µM (inactive) | 2.79 µM (inactive) | > 10 µM (inactive) | 6.03 µM (inactive) | > 10 µM (inactive) | > 10 µM (inactive) | > 10 µM (inactive) | > 10 µM (inactive) | > 10 µM (inactive) |
